In ChEMBL document CHEMBL1132186, “Structure-based design of selective inhibitors of dihydrofolate reductase: synthesis and antiparasitic activity of 2, 4-diaminopteridine analogues with a bridged diarylamine side chain” (J Med Chem, 1999):

What was measured:
[1] = target: T1, Dihydrofolate reductase (Rattus norvegicus, UniProt Q920D2); test: Inhibitory activity against DHFR (Dihydrofolate reductase) from Rat liver
T1 sequence (Q920D2 whole entry): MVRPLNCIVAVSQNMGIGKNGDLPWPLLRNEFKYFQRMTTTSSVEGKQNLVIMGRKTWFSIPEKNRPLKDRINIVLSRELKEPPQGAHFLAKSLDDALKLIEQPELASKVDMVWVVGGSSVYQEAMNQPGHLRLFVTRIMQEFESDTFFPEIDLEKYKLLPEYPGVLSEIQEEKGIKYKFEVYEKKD

[2] = target: T2, Bifunctional dihydrofolate reductase-thymidylate synthase (Toxoplasma gondii, UniProt Q07422); test: Inhibitory activity against DHFR (Dihydrofolate reductase) from Toxoplasma gondii.
T2 sequence (Q07422 whole entry): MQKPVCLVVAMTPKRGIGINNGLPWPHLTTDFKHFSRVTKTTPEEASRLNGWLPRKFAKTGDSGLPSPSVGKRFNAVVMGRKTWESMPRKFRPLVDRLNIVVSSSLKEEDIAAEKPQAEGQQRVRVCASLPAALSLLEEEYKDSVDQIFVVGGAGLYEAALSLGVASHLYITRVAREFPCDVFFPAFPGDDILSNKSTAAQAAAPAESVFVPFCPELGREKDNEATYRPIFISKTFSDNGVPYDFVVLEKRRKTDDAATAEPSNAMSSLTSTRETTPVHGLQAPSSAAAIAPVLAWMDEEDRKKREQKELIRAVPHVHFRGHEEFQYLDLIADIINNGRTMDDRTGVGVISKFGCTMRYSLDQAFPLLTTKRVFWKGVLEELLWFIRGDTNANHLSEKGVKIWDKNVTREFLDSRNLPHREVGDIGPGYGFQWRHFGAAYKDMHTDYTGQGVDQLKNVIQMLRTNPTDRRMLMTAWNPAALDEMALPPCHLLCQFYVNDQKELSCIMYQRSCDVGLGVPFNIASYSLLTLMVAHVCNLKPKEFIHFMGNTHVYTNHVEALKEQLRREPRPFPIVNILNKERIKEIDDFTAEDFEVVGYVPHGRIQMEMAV

[3] = Ratio of Dihydrofolate reductase inhibitory activity in rat to Pneumocystis carinii
[4] = Ratio of Dihydrofolate reductase inhibitory activity in rat to Toxoplasma gondii
[5] = target: T3, Dihydrofolate reductase (Pneumocystis carinii, UniProt P16184)
T3 sequence (P16184 whole entry): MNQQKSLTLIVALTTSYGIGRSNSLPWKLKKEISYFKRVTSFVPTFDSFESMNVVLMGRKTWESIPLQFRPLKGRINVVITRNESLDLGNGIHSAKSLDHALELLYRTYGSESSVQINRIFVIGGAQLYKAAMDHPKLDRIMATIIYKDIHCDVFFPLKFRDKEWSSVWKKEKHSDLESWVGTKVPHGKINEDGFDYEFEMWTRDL
Description: Inhibitory activity against DHFR (Dihydrofolate reductase) from Pneumocystis carinii.

[6] = target: T4, Dihydrofolate reductase (Mycobacterium avium, UniProt O30463); test: Inhibitory activity against DHFR (Dihydrofolate reductase) from Mycobacterium avium
T4 sequence (O30463 whole entry): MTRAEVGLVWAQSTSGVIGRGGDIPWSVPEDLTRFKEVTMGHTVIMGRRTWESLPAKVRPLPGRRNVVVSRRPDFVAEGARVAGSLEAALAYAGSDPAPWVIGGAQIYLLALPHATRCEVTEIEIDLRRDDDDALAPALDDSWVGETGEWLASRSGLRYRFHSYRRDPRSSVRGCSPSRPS

[7] = Ratio of Dihydrofolate reductase inhibitory activity in rat to Mycobacterium avium

| SMILES | IC50 [1] [nM] | IC50 [2] [nM] | Selectivity ratio [3] | Selectivity ratio [4] | IC50 [5] [nM] | IC50 [6] [nM] | Selectivity ratio [7] |
| --- | --- | --- | --- | --- | --- | --- | --- |
| Nc1nc(N)c2nc(Cn3c4ccccc4c4ccccc43)cnc2n1 | 55 | 12 | 0.55 | 4.6 | 100 | – | – |
| Nc1nc(N)c2nc(CN3c4ccccc4Oc4ccccc43)cnc2n1 | 13000 | 2200 | – | – | 3400 | – | – |
| Nc1nc(N)c2nc(CN3c4ccccc4Sc4ccccc43)cnc2n1 | 200 | 110 | 1.7 | 1.8 | 120 | 29 | 6.9 |
| Nc1nc(N)c2nc(CN3c4ccccc4C=Cc4ccccc43)cnc2n1 | – | 43 | 21 | 102 | – | 12 | 367 |
| Nc1nc(N)c2nc(CN(c3ccccc3)c3ccccc3)cnc2n1 | 4000 | – | 0.82 | 3.1 | – | 3700 | 1.1 |
| Nc1nc(N)c2nc(CN3c4ccccc4CCc4ccccc43)cnc2n1 | – | – | 3.6 | 5.6 | – | – | – |
| Nc1nc(N)c2nc(CN3c4ccccc4Cc4ccccc43)cnc2n1 | 27 | 29 | 0.64 | 0.93 | 42 | 17 | 1.6 |
